The values below come from PubChem BioAssay AID977628 (Broad Institute, 2014).

Assay in all cases: E. coli growth inhibition, wild-type GFP versus h24 humanized RFP strain, dose response, h24 mutant RFP vs wild-type GFP, cherry-pick (AID 977628)
In assay [1] the test system is E. coli h24 humanized mutant RFP strain growth, fluorescence, 24 h.
The test system of assay [2] is E. coli WT GFP strain growth, fluorescence, 24 h.
Assay [3] deals with E. coli mixed WT/h24 culture total growth, OD600, 24 h.

Inconclusive results are not listed. The source made the active and inactive calls.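 How the source made its calls: active means compound lowering the normal-ribosome reporter at least twice as much as the humanized-ribosome reporter, growth loss under a set limit; inconclusive means no clear call, values can overlap the other calls; inactive means the rest.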

Molecule `COc1ccccc1NC(=O)COC(=O)Cc1c[nH]c2ccccc12` registered a half-maximal activity concentration (AC50) in assay [1] above 100 µM. Take `CC(=O)NS(=O)(=O)c1ccc(NC(=O)COc2ccc(C(=O)c3ccccc3)cc2)cc1`: the AC50 was above 100 µM in assay [1] and > 100 µM (inactive) in assay [2]. For `O=c1[nH]n2c(-c3ccccc3)nc(O)c2c2ccccc12` the same measures were 36.6 µM and > 100 µM (inactive).

Take `O=C(NCCc1ccccc1)c1ccc2c(c1)S(=O)(=O)c1ccccc1C2=O`: the AC50 in assay [1] was above 100 µM; in assay [2], > 100 µM (inactive). For `COc1ccc2c(c1)c1ncn(Cc3ccccn3)c(=O)c1n2C`, in assay [1], the AC50 is above 100 µM. Consider `Cc1nn(C)cc1NC(=O)C[C@@H]1CC[C@@H]2[C@@H](COc3ccc(NC(=O)C4CCC4)cc3C(=O)N2C)O1`, for which the AC50 in assay [1] is 3.9 µM; in assay [2], > 100 µM (inactive). For `Clc1ccc2nc(CN3CCCc4ccccc43)cn2c1` the same measures were above 100 µM and > 100 µM (inactive).

Molecule `S=C1SCN(Cc2cccnc2)CN1Cc1cccnc1` returned an AC50 in assay [1] above 100 µM. Molecule `O=C(NCc1ccccc1Cl)c1ccc2c(c1)SC1=NS(=O)(=O)CCN12` showed an AC50 in assay [1] above 100 µM. Regarding `O=C(Nc1cccc2ccccc12)c1ccc([N+](=O)[O-])o1`, the AC50 was above 100 µM in assay [1] and > 100 µM (inactive) in assay [2]. In the case of `O=C1c2ccccc2C(c2nnnn2C2CCCCC2)N1CCc1ccc(O)cc1` (stereo not given), the AC50 in assay [1] was above 100 µM. Consider `Cc1ccc(-c2nc3ccc(NS(=O)(=O)c4ccccc4)cc3[nH]2)o1`, for which the concentration at half-maximal activity (AC50) in assay [1] was 5.12 µM; in assay [2], > 100 µM (inactive). Regarding `CC(=O)Nc1ccc2nc3ccccc3nc2c1`, the results for the AC50 in assay [1] and in assay [2] were above 100 µM and > 100 µM (inactive), respectively. Consider `O=C(NCCC1=CCCCC1)c1ccc(Cl)c(S(=O)(=O)Nc2ccccc2)c1`, for which the figures for the half-maximal activity concentration (AC50) in assay [1] and in assay [2] were above 100 µM and > 100 µM (inactive), respectively. Consider `COc1ccc(CNC(=O)CSCc2c(F)cccc2Cl)cc1`, for which the AC50 in assay [1] was above 100 µM; in assay [2], > 100 µM (inactive). `O=C(Nc1cccc(O)c1)c1cccc(S(=O)(=O)Nc2cccc(O)c2)c1`: the AC50 in assay [1] is above 100 µM. With `N#Cc1ccsc1NC(=O)CSc1nnnn1-c1ccc(O)cc1`, the AC50 in assay [1] is above 100 µM; in assay [2], > 100 µM (inactive).

For `COc1ccc2oc(C(=O)NCc3ccco3)c(C)c2c1`, the concentration at half-maximal activity (AC50) in assay [1] was above 100 µM; in assay [2], > 100 µM (inactive). On to `COc1cc(C)ccc1OCc1cc(C(=O)N2CCC(c3ccc(F)cc3)C2)no1` (stereo not given), for which the AC50 was above 100 µM in assay [1] and > 100 µM (inactive) in assay [2].

Take `O=C(O)CC1(CC(=O)Nc2ccc3sccc3c2)CCCCC1`: the AC50 in assay [1] was above 100 µM. In the case of `COc1ccc(NC(=O)c2nc[nH]c2C(=O)N(C)Cc2ccccc2)cc1`, the AC50 in assay [1] was above 100 µM; in assay [2], > 100 µM (inactive). With `C#CC(C)(C)NC(=O)c1ccc(-c2ccccc2F)cc1`, in assay [1], the AC50 was above 100 µM.

With `CC(=O)Nc1cccc(OCc2ccc([N+](=O)[O-])cc2)c1`, in assay [1], the AC50 was above 100 µM. `Cc1ccc(CNS(=O)(=O)c2ccc3c(c2)NC(=O)CS3)cc1`: the AC50 is 8.08 µM in assay [1] and > 100 µM (inactive) in assay [2]. Take `O=C(CN1C(=O)c2ccccc2C1=O)Nc1cccc(S(=O)(=O)Nc2ccccc2Cl)c1`: the AC50 is above 100 µM in assay [1] and > 100 µM (inactive) in assay [2]. Regarding `Cc1ccc(C(=O)Nc2ccc3ncccc3c2)cc1`, in assay [1], the AC50 is above 100 µM. As for `CCOc1ccc(S(=O)(=O)N(C)c2ccc(OCC(=O)NCc3cccnc3)cc2)cc1`, the AC50 in assay [1] was above 100 µM. Regarding `O=C(C1Cc2ccccc2CN1C(=O)c1ccccc1)N1CCN(c2ccccc2)CC1` (stereo not given), the AC50 in assay [1] was above 100 µM.

With `CCc1cccc(NC(=O)CN(C)S(=O)(=O)c2cccc3cccnc23)c1`, the half-maximal activity concentration (AC50) in assay [1] is above 100 µM. In the case of `O=C(Nc1ccc(-c2nnc3n2CCCCC3)cc1)c1cc2ccccc2o1`, in assay [1], the AC50 was above 100 µM.

In the case of `O=C(CSCc1ccc(Br)cc1)NCc1ccccn1`, the AC50 in assay [1] is above 100 µM. In the case of `CN(c1ccccc1)S(=O)(=O)c1cccc(NC(=O)CCN2C(=O)C3CCCCC3C2=O)c1` (stereo not given), the results for the AC50 in assay [1] and in assay [2] were 9.42 µM and > 100 µM (inactive), respectively. Consider `Cc1ccc(NC(=O)c2ccc(NCCCN3CCC(C)CC3)c([N+](=O)[O-])c2)cc1F`, for which the concentration at half-maximal activity (AC50) was 11.1 µM in assay [1] and > 100 µM (inactive) in assay [2]. The molecule `C=CCNC(=O)c1ccccc1CCc1ccccc1` yielded an AC50 in assay [1] above 100 µM. In the case of `COc1ccccc1OCC(=O)Nc1ccc(S(=O)(=O)N2CCCCCC2)cc1`, the AC50 in assay [1] is above 100 µM; in assay [2] it was > 100 µM (inactive). The matching figures for `O=C(Cc1ccc(NC(=O)C2CCCN(C(=O)CCc3ccccc3)C2)cc1)Nc1cccc(C(=O)N2CCCC2)c1` (stereo not given): above 100 µM and > 100 µM (inactive). Molecule `CSc1nc2nc3c(cc2c(=O)n1-c1ccccc1C)CCCC3` returned an AC50 in assay [1] of 6.76 µM.

Take `Cc1cccc(CSCC(=O)N2CCN(S(=O)(=O)c3ccccc3C#N)CC2)c1`: the AC50 in assay [1] was above 100 µM; in assay [2] it was > 100 µM (inactive). With `COCC(C)NC(=O)c1nn(Cc2ccccc2)c(=O)c2ccccc12` (stereo not given), the concentration at half-maximal activity (AC50) in assay [1] was above 100 µM. For `O=C(CSCc1cnn(-c2ccccc2)c1-n1cccc1)NCc1cccnc1`, the AC50 in assay [1] was above 100 µM.

With `O=C(Nc1cccc(Oc2ccc3c(c2)C(=O)NC3=O)c1)c1cccs1`, the half-maximal activity concentration (AC50) in assay [1] was above 100 µM; in assay [2], > 100 µM (inactive). In the case of `COC(=O)c1ccccc1NC(=O)c1ccc2c(c1)CC(C)O2` (stereo not given), the AC50 is above 100 µM in assay [1] and > 100 µM (inactive) in assay [2].

For `CCOc1ccc(S(=O)(=O)N(C)c2ccc(OCC(=O)Nc3ccc4[nH]c(=O)[nH]c4c3)cc2)cc1`, the AC50 in assay [1] was above 100 µM; in assay [2] it was > 100 µM (inactive). In turn, `O=C(c1cccs1)c1c[nH]cc1-c1ccccc1` registered an AC50 in assay [1] above 100 µM. Turning to `CCOc1cc(/C=C(\CC(=O)O)c2nc3ccccc3s2)ccc1OC`, in assay [1], the concentration at half-maximal activity (AC50) is above 100 µM. Molecule `c1ccc(CSCc2ccccc2)cc1` registered a half-maximal activity concentration (AC50) in assay [1] above 100 µM.

`CC(OC(=O)COc1ccccc1)C(=O)NC1CCCC1` (stereo not given) yielded an AC50 in assay [1] above 100 µM. With `O=C(Nc1ccc(Br)cc1)c1cccnc1N1CCCCC1`, the AC50 in assay [1] was above 100 µM. Take `Nc1ccc(C(=O)OCCc2ccccc2)cc1`: the AC50 in assay [1] was above 100 µM. On the same count and under the same terms, the value for `Cn1cnc([N+](=O)[O-])c1Oc1ccccc1` was above 100 µM. `O=C(NCCCn1ccnc1)c1sc2cc([N+](=O)[O-])ccc2c1Cl`: in assay [1], the AC50 is above 100 µM. Turning to `Cc1nc2ncnn2c(N2CCC(C(=O)NC3CCCC3)CC2)c1Cc1ccccc1`, the concentration at half-maximal activity (AC50) in assay [1] is above 100 µM. `Cn1ccc2cc(-c3ccc4ncnc(NCc5cccs5)c4c3)ccc21`: the AC50 in assay [1] is above 100 µM.

As to `Cc1cccc(-n2cnc3cc([N+](=O)[O-])ccc32)c1`, the AC50 in assay [1] was above 100 µM. As for `CCOC(=O)C(C)Sc1nc(N2CCOCC2)c2c(c1C#N)CC(C)(C)OC2` (stereo not given), the AC50 in assay [1] is above 100 µM. As for `NC(=O)c1ccsc1NC(=O)COC(=O)CCOc1ccccc1`, the AC50 in assay [3] is 46.3 µM; in assay [2], > 100 µM (inactive). Take `COc1ccc(-c2ccccc2)cc1NC(=O)c1ccncc1`: the AC50 in assay [3] was above 100 µM; in assay [2], > 100 µM (inactive). For `O=C(NCc1nnnn1-c1ccc(Cl)cc1)c1ccc([N+](=O)[O-])o1` the same measures were above 100 µM and > 100 µM (inactive). As to `CSc1c(-c2ccccn2)c(N)nn1C(=O)C1CC1`, the concentration at half-maximal activity (AC50) is above 100 µM in assay [3] and > 100 µM (inactive) in assay [2].

Regarding `CCCNC(=O)c1cc(C2CCCN(S(=O)(=O)c3cccc4cccnc34)C2)on1` (stereo not given), the AC50 in assay [3] is above 100 µM; in assay [2], > 100 µM (inactive).

In the case of `Cc1cc(Br)cn2c(Cc3cccc(Cl)c3)c(-c3ccco3)nc12`, in assay [1], the AC50 was above 100 µM. Same read-out and setting: the same measure for `N#Cc1nc(-c2ccco2)oc1NCc1ccccc1Cl`: above 100 µM. On to `NS(=O)(=O)c1cccc(NC(=O)CSc2nc3ccccc3n2-c2ccccc2)c1`, for which the figures for the AC50 in assay [3] and in assay [2] were 38.1 µM and > 100 µM (inactive), respectively. As for `COC(=O)c1cc2ccccc2n1S(=O)(=O)c1ccccc1`, in assay [1], the AC50 was above 100 µM. As to `O=C(CSCc1c(Cl)cccc1Cl)Nc1cccnc1`, the results for the AC50 in assay [3] and in assay [2] were above 100 µM and > 100 µM (inactive), respectively. Take `Brc1cc2c(cc1Br)OCCOCCOCCO2`: the AC50 in assay [3] is above 100 µM; in assay [2], > 100 µM (inactive). As for `COc1ccc(C(=O)COC(=O)c2ccccc2O)c(OC)c1`, the values for the AC50 in assay [3] and in assay [2] were 40 µM and > 100 µM (inactive), respectively.

The molecule `C(=C/c1nccc2c1[nH]c1ccccc12)/c1ccc2c(c1)OCO2` gave an AC50 in assay [1] above 100 µM.

For `OCCN(Cc1ccccc1)Cc1ccc(Cl)cc1`, the AC50 in assay [3] was above 100 µM; in assay [2], > 100 µM (inactive).

For `Cc1cc(Cl)n2ncc(-c3ccccc3)c2n1`, the AC50 in assay [3] was above 100 µM; in assay [2], > 100 µM (inactive). Regarding `CCCC(=O)Nc1cccc(C(=O)Nc2ccccc2OCC)c1`, in assay [1], the AC50 is above 100 µM. In assay [1], `CC(NC(=O)c1ccncc1)c1ccc(Cl)cc1Cl` (stereo not given) showed an AC50 above 100 µM. Turning to `CCOc1ccc2oc(-c3ccccc3)c(C(=O)N(C)C)c2c1`, the AC50 in assay [1] was above 100 µM.

For the molecule `Cc1cccc(-c2ccc([C@H]3[C@H](CO)N4CCCCN(S(=O)(=O)c5ccccc5C)C[C@@H]34)cc2)c1`, the AC50 was above 100 µM in assay [3] and > 100 µM (inactive) in assay [2]. On to `COc1ccc(-n2ccnc2SCC(=O)NCc2ccccc2)c(OC)c1`, for which the figures for the AC50 in assay [3] and in assay [2] were above 100 µM and > 100 µM (inactive), respectively.

As for `Cc1ccc(Oc2ccc(S(=O)(=O)N3CCOCC3)cc2C(N)=O)cc1C`, the AC50 in assay [3] is above 100 µM; in assay [2], > 100 µM (inactive). For `CN(C)C(=O)c1ccc(NC(=O)CSc2nc3ccccc3[nH]2)cc1`, the AC50 is above 100 µM in assay [3] and > 100 µM (inactive) in assay [2]. Regarding `Cc1ccc(NC(=O)c2ccc(CSc3ccccn3)cc2)c(O)c1`, the AC50 is 22.2 µM in assay [3] and > 100 µM (inactive) in assay [2]. With `CCOc1ccc2oc(C(=O)NC3CCN(Cc4ccccc4)CC3)c(C)c2c1`, the AC50 in assay [3] is above 100 µM; in assay [2], > 100 µM (inactive).
